Results on 24 compounds are retold here after ChEMBL document CHEMBL5506066, “Potency-Enhanced Peptidomimetic VHL Ligands with Improved Oral Bioavailability” (J Med Chem, 2024).

Series [1] in a line: Apparent permeability from apical to basolateral side in MDCKI cells at 10 uM measured upto 180 mins by LC-MS/MS analysis. The class given is ADME, cell-based, Canis lupus familiaris, MDCK1. Conditions: dog, MDCK.
Series [2] is described as follows: Plasma protein binding in human at 5 uM incubated for 4 hrs by HPLC analysis. The class given is ADME, cell-free. Conditions: read-out: PPB (converted).
Series [3] is described as follows: Plasma protein binding in CD-1 mouse at 5 uM incubated for 4 hrs by HPLC analysis. The format is ADME, cell-free. The note with it: read-out: PPB (converted).
Series [4] is described as follows: Solubility of the compound in FaSSIF. The class given is ADME.
The nature of series [5]: Plasma clearance in female C57Bl/6 mouse at 1 mg/kg, iv measured upto 8 hrs by LC-MS/MS analysis. The class given is ADME, organism-based.
Series [6] in a line: Volume of distribution in female C57Bl/6 mouse at 1 mg/kg, iv measured upto 8 hrs by LC-MS/MS analysis. The note with it: in vivo. The format is ADME, organism-based.
Series [7] is described as follows: Half life in female C57Bl/6 mouse at 10 mg/kg, po measured upto 8 hrs by LC-MS/MS analysis. The format is ADME, organism-based. The note with it: in vivo.
The nature of series [8]: Oral bioavailability in female C57Bl/6 mouse at 10 mg/kg measured upto 8 hrs by LC-MS/MS analysis. The class given is ADME, organism-based. Conditions: in vivo.
The target of series [9] is T1, von Hippel-Lindau disease tumor suppressor (Homo sapiens, UniProt P40337).
T1 sequence (P40337 whole entry): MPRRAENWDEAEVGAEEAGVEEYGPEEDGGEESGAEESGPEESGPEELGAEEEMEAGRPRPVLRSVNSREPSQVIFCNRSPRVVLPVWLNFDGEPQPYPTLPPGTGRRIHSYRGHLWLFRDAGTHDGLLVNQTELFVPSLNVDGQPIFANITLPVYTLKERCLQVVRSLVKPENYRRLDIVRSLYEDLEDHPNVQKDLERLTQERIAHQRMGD
The target in series [10] is T1, von Hippel-Lindau disease tumor suppressor. Nature of the series: biochemical.
Description: Binding affinity to VHL (unknown origin)-NanoLuc fusion protein expressed in HEK293 cells assessed as apparent dissociation constant incubated for 30 mins in presence of digitonin by NanoBRET assay
Series [11] is described as follows: Permeability of the compound at pH 7.4 in PBS incubated for 16 hrs by LC-MS/MS based PAMPA assay. The class given is ADME. The note with it: read-out: permeability. (The PAMPA barrier holds no transporters, so it reflects passive diffusion.)
In series [12] the target is T1, von Hippel-Lindau disease tumor suppressor. Briefly: Binding affinity to Navi-tagged VHL (unknown origin) assessed as dissociation constant by SPR assay. (In general: Surface plasmon resonance follows binding to a sensor surface in real time, without labels.)

In brackets after ≈: the same amount, converted by molar mass.

Turning to `CC(=O)N[C@H](C(=O)N1C[C@H](O)C[C@H]1C(=O)N[C@@H](C)c1ccc(-c2scnc2C)cc1)C(C)(C)C`, the apical-to-basolateral permeability (Papp A→B) at 3 h, 10 µM in series [1] was 0.7 ×10⁻⁶ cm/s. Besides, the fraction unbound at 4 h, 5 µM in [2] is 0.516; in [3], 0.399. In series [4], this compound registered a solubility of over 200 µM. The compound also displayed a clearance in series [5] of 57.7 mL/min/kg. For the same compound, the Vd in series [6] amounted to 0.9 L/kg. In series [7], this compound had a half-life of 3.8 h. For the same compound, the bioavailability in [8] was 2.7%. Moreover, the Kd turned out to be 180 nM in series [9] and 120 nM in series [10].
For `CC(=O)N[C@H](C(=O)N1C[C@H](O)C[C@H]1C(=O)N[C@H](Cc1ccc(-c2scnc2C)cc1)C(N)=O)C(C)(C)C`, in series [11], the Papp at 16 h is 0.19 ×10⁻⁶ cm/s. The results for the dissociation constant (Kd) in series [9] and in series [10] were over 51800 nM and 3290 nM, respectively.
In the case of `NC(=O)[C@@H](Cc1ccc(-c2ccccc2)cc1)NC(=O)[C@@H]1C[C@@H](O)CN1C(=O)[C@@H](n1cc(C2CC2)nn1)C12CC3CC(CC(C3)C1)C2`, the Kd in series [9] stood at 67 nM; in [10], 83 nM.
With `Cc1ncsc1-c1ccc([C@H](C)NC(=O)[C@@H]2C[C@@H](O)CN2C(=O)[C@@H](n2cc(C3CC3)nn2)C(C)(C)C)cc1`, the Kd came out at 3.3 nM in series [9] and 3.9 nM in series [10].
For `NC(=O)[C@@H](Cc1ccc(-c2ccccc2)cc1)NC(=O)[C@@H]1C[C@@H](O)CN1C(=O)Cc1cccnn1` the same measures were over 57500 nM and over 51800 nM.
As for `Cc1ncsc1-c1ccc2c(c1)CCCC[C@@H]2NC(=O)[C@@H]1C[C@@H](O)CN1C(=O)[C@@H](n1cc(C2CC2)nn1)C(C)(C)C`, the figures for the Kd in series [12], in series [9] and in [10] were 0.54 nM, under 2.5 nM and under 2.5 nM, respectively. In addition, the Papp A→B at 3 h, 10 µM in series [1] was 8.9 ×10⁻⁶ cm/s. Further, the fraction unbound at 4 h, 5 µM in series [2] and in series [3] was 0.003 in each case. The same compound returned a solubility in series [4] of 190 µM (≈ 110 µg/mL). The same compound registered a clearance in series [5] of 13.9 mL/min/kg. The compound also had a Vd in series [6] of 0.7 L/kg. The half-life in series [7] was 2.3 h. The bioavailability in series [8] was 46.5%.
As for `CC(C)[C@@H](C(=O)N1C[C@H](O)C[C@H]1C(=O)N[C@H](Cc1ccc(-c2ccccc2)cc1)C(N)=O)c1cccnc1`, the results for the Kd in series [9] and in series [10] were 24700 nM and 32100 nM, respectively.
For `Cc1cnn([C@H](C(=O)N2C[C@H](O)C[C@H]2C(=O)N[C@H](Cc2ccc(-c3ccccc3)cc2)C(N)=O)C(C)C)c1` the same measures were 25400 nM and 18600 nM.
For `NC(=O)[C@@H](Cc1ccc(-c2ccccc2)cc1)NC(=O)[C@@H]1C[C@@H](O)CN1C(=O)Cc1cccnc1` the same measures were over 57500 nM and over 51800 nM.
Consider `Cc1cn([C@H](C(=O)N2C[C@H](O)C[C@H]2C(=O)N[C@H](Cc2ccc(-c3ccccc3)cc2)C(N)=O)C(C)C)cn1`, for which the Kd in series [9] was over 57500 nM; in [10], 48500 nM.
As for `NC(=O)[C@@H](Cc1ccc(-c2ccccc2)cc1)NC(=O)[C@@H]1C[C@@H](O)CN1C(=O)[C@H](C1CCC1)n1cc(C2CC2)nn1`, the Kd in series [9] is 110 nM; in [10], 100 nM.
For `CC(C)(C)[C@@H](C(=O)N1C[C@H](O)C[C@H]1C(=O)N[C@H](Cc1ccc(-c2ccccc2)cc1)C(N)=O)n1cc(C(=O)O)nn1` the same measures were 40100 nM and 310 nM.
For `C=CC(C)(C)[C@@H](C(=O)N1C[C@H](O)C[C@H]1C(=O)N[C@H](Cc1ccc(-c2ccccc2)cc1)C(N)=O)n1cc(C2CC2)nn1` the same measures were 63 nM and 84 nM.
For the compound `CC(C)(C)[C@@H](C(=O)N1C[C@H](O)C[C@H]1C(=O)N[C@H](Cc1ccc(-c2ccccc2)cc1)C(N)=O)n1cc(C2CC2)nn1`, the dissociation constant (Kd) came out at 85 nM in [9] and 71 nM in series [10].
On to `Cc1cc(C2(C(=O)N3C[C@H](O)C[C@H]3C(=O)N[C@H](Cc3ccc(-c4ccccc4)cc3)C(N)=O)CC2)on1`, for which the values for the Kd in [9] and in series [10] were over 57500 nM and over 51800 nM, respectively.
Regarding `Cc1ccc(CC(=O)N2C[C@H](O)C[C@H]2C(=O)N[C@H](Cc2ccc(-c3ccccc3)cc2)C(N)=O)cn1`, the Kd in series [9] was over 57500 nM; in [10] it was over 51800 nM.
In the case of `CC(C)[C@@H](C(=O)N1C[C@H](O)C[C@H]1C(=O)N[C@H](Cc1ccc(-c2ccccc2)cc1)C(N)=O)c1cnn(C)c1`, the results for the Kd in series [9] and in series [10] were over 57500 nM and 45700 nM, respectively.
In the case of `CCC(C)(C)[C@@H](C(=O)N1C[C@H](O)C[C@H]1C(=O)N[C@H](Cc1ccc(-c2ccccc2)cc1)C(N)=O)n1cc(C2CC2)nn1`, the Kd in series [9] was 59 nM; in series [10], 69 nM.
As to `CC(C)(C)[C@@H](C(=O)N1C[C@H](O)C[C@H]1C(=O)N[C@H](Cc1ccc(-c2ccccc2)cc1)C(N)=O)n1cc(C(N)=O)nn1`, the results for the Kd in [9] and in [10] were 1900 nM and 210 nM, respectively.
In the case of `CC(=O)N[C@H](C(=O)N1C[C@H](O)C[C@H]1C(=O)N[C@H](Cc1ccc(-c2ccccc2)cc1)C(N)=O)C(C)(C)C`, the Papp at 16 h in series [11] was found to be 0.004 ×10⁻⁶ cm/s.
On to `CC[C@H](C)[C@@H](C(=O)N1C[C@H](O)C[C@H]1C(=O)N[C@H](Cc1ccc(-c2ccccc2)cc1)C(N)=O)n1cc(C2CC2)nn1`, for which the results for the Kd in series [9] and in series [10] were 74 nM and 87 nM, respectively.
As to `CC(C)(C)[C@H](N=[N+]=[N-])C(=O)N1C[C@H](O)C[C@H]1C(=O)N[C@H](Cc1ccc(-c2ccccc2)cc1)C(N)=O`, the dissociation constant (Kd) in series [9] was determined as 35000 nM; in [10], 23900 nM.
With `Cc1ncsc1-c1ccc(CNC(=O)[C@@H]2C[C@@H](O)CN2C(=O)[C@@H](n2cc(C3CC3)nn2)C(C)(C)C)cc1`, the Kd was determined as 6.3 nM in series [9] and 6.5 nM in series [10].
With `CC(=O)N[C@H](C(=O)N1C[C@H](O)C[C@H]1C(=O)NC(C(N)=O)c1ccc(-c2scnc2C)cc1)C(C)(C)C` (mixture of isomers), the dissociation constant Kd was determined as 5170 nM in series [9] and 500 nM in series [10].

What is called Papp A→B is the apparent permeability from the apical to the basolateral side of a cell layer. A word on the solubility: it is the concentration that dissolves in the medium under given conditions. Read a low solubility as a poorly soluble substance. In general, clearance refers to the rate of elimination divided by the concentration. Low readings indicate inefficient removal, high ones efficient removal. One may read the Vd as the apparent volume that relates the amount in the body to the concentration in plasma or blood. A word on the half-life: it is the time needed for the level to fall by half in the phase considered. Read a high half-life as slow loss. As a reminder, the bioavailability is dose-corrected exposure relative to a reference, in per cent. Higher therefore signals good availability. In general, Kd refers to the concentration at which binding is half-saturated.
